Results taken from PubChem BioAssay AID248 (DTP/NCI, 2004).
Several values for one entry are separate records, joined by “and”; a condition that tells them apart may be missing. Equal entries are not always repeated. Toxic doses and inconclusive results are not listed. No stated cut-off is given here; in the data, active means T/C of 150% or more; inactive means T/C below 125%.

Tested on: L1210 leukemia ip in BDF1 mice, survival T/C
Assay: NCI In Vivo Anticancer Drug Screen. Data for tumor model L1210 Leukemia (intraperitoneal) in B6D2F1 (BDF1) mice
Settings: higher = longer survival
Outline: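 Transplanted-tumor mice were given test agent; controls received vehicle only. Survival readings from the two groups were divided (treated over control).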

[1] = endpoint: mean survival time, dose: 100.0 mg/kg/injection, schedule: Q04DX003 (ip), vehicle: Klucel (hydroxypropylcellulose) (HPC)
[2] = endpoint: mean survival time, dose: 200.0 mg/kg/injection, schedule: Q04DX003 (ip), vehicle: Klucel (hydroxypropylcellulose) (HPC)
[3] = endpoint: mean survival time, dose: 400.0 mg/kg/injection, schedule: Q04DX003 (ip), vehicle: Klucel (hydroxypropylcellulose) (HPC)
[4] = endpoint: mean survival time, dose: 100.0 mg/kg/injection, schedule: Q01DX001 (ip), vehicle: carboxymethylcellulose (CMC)
[5] = endpoint: mean survival time, dose: 200.0 mg/kg/injection, schedule: Q01DX001 (ip), vehicle: carboxymethylcellulose (CMC)
[6] = endpoint: mean survival time, dose: 400.0 mg/kg/injection, schedule: Q01DX001 (ip), vehicle: carboxymethylcellulose (CMC)
[7] = endpoint: mean survival time, dose: 100.0 mg/kg/injection, schedule: Q04DX002 (ip), vehicle: Klucel (hydroxypropylcellulose) (HPC)
[8] = endpoint: mean survival time, dose: 200.0 mg/kg/injection, schedule: Q04DX002 (ip), vehicle: Klucel (hydroxypropylcellulose) (HPC)
[9] = endpoint: mean survival time, dose: 400.0 mg/kg/injection, schedule: Q04DX002 (ip), vehicle: Klucel (hydroxypropylcellulose) (HPC)
[10] = endpoint: mean survival time, dose: 50.0 mg/kg/injection, schedule: Q01DX009 (ip), vehicle: Klucel (hydroxypropylcellulose) (HPC)
[11] = endpoint: mean survival time, dose: 100.0 mg/kg/injection, schedule: Q01DX009 (ip), vehicle: Klucel (hydroxypropylcellulose) (HPC)
[12] = endpoint: mean survival time, dose: 200.0 mg/kg/injection, schedule: Q01DX009 (ip), vehicle: Klucel (hydroxypropylcellulose) (HPC)
[13] = endpoint: mean survival time, dose: 50.0 mg/kg/injection, schedule: Q01DX001 (ip), vehicle: saline
[14] = endpoint: mean survival time, dose: 100.0 mg/kg/injection, schedule: Q01DX001 (ip), vehicle: saline
[15] = endpoint: mean survival time, dose: 100.0 mg/kg/injection, schedule: Q04DX003 (ip), vehicle: saline
[16] = endpoint: mean survival time, dose: 200.0 mg/kg/injection, schedule: Q01DX001 (ip), vehicle: saline
[17] = endpoint: mean survival time, dose: 200.0 mg/kg/injection, schedule: Q04DX003 (ip), vehicle: saline
[18] = endpoint: mean survival time, dose: 400.0 mg/kg/injection, schedule: Q01DX001 (ip), vehicle: saline
[19] = endpoint: mean survival time, dose: 400.0 mg/kg/injection, schedule: Q04DX003 (ip), vehicle: saline
[20] = endpoint: mean survival time, dose: 50.0 mg/kg/injection, schedule: Q01DX001 (ip), vehicle: carboxymethylcellulose (CMC)
[21] = endpoint: mean survival time, dose: 100.0 mg/kg/injection, schedule: Q01DX009 (ip), vehicle: saline
[22] = endpoint: mean survival time, dose: 200.0 mg/kg/injection, schedule: Q01DX009 (ip), vehicle: saline
[23] = endpoint: mean survival time, dose: 400.0 mg/kg/injection, schedule: Q01DX009 (ip), vehicle: saline
[24] = endpoint: mean survival time, dose: 400.0 mg/kg/injection, schedule: Q01DX009 (ip), vehicle: Klucel (hydroxypropylcellulose) (HPC)

Measured: T/C

CC1(C)N=C(N)N=C(N)N1c1ccc(OCCNS(=O)(=O)c2cccc(S(=O)(=O)F)c2)c(Cl)c1
inactive: endpoint: median survival time, dose: 100.0 mg/kg/injection, schedule: Q01DX001 (ip), vehicle: Klucel (hydroxypropylcellulose) (HPC) 105 % of control | endpoint: median survival time, dose: 200.0 mg/kg/injection, schedule: Q01DX001 (ip), vehicle: Klucel (hydroxypropylcellulose) (HPC) 100 % of control | endpoint: median survival time, dose: 400.0 mg/kg/injection, schedule: Q01DX001 (ip), vehicle: Klucel (hydroxypropylcellulose) (HPC) 105 % of control

CCCCN(CCCC)CC(O)c1cc2ccc(Cl)cc2nc1-c1ccc(Cl)cc1 (stereo not drawn)
inactive: [1] 100 % of control | [2] 96 % of control | [3] 102 % of control

O=C(N/N=C/c1ccc(Cl)c([N+](=O)[O-])c1)C(O)(c1ccccc1)c1ccccc1
inactive: [4] 103 % of control | [5] 95 % of control | [6] 101 % of control

COc1ccccc1NC(=O)c1ccco1
inactive: endpoint: mean survival time, dose: 12.5 mg/kg/injection, schedule: Q04DX002 (ip), vehicle: Klucel (hydroxypropylcellulose) (HPC) 102 % of control | endpoint: mean survival time, dose: 25.0 mg/kg/injection, schedule: Q04DX002 (ip), vehicle: Klucel (hydroxypropylcellulose) (HPC) 102 % of control | endpoint: mean survival time, dose: 50.0 mg/kg/injection, schedule: Q04DX002 (ip), vehicle: Klucel (hydroxypropylcellulose) (HPC) 97 % of control | [7] 95 % of control | [8] 106 % of control | [9] 103 % of control

Nc1nn(-c2ccccc2)c(N)c1N=Nc1ccccc1
inactive: [10] 98 % of control | [11] 98 % of control | [12] 98 % of control

Cc1ncc(C(O)c2ccc(Cl)cc2)n1Cc1ccccc1 (stereo not drawn)
inactive: [1] 100 % of control | [2] 94 % of control | [3] 104 % of control

Cc1cnc(-n2nc(-c3ccccc3)cc2-c2ccccc2)nc1-c1ccccc1O
inactive: endpoint: mean survival time, dose: 12.5 mg/kg/injection, schedule: Q01DX009 (ip), vehicle: Klucel (hydroxypropylcellulose) (HPC) 87 % of control | endpoint: mean survival time, dose: 25.0 mg/kg/injection, schedule: Q01DX009 (ip), vehicle: Klucel (hydroxypropylcellulose) (HPC) 91 % of control | [10] 97 % of control and 92 % of control

O=C(O)CCl
inactive: [13] 98 % of control | [14] 104 % of control

Cc1ccc(S(=O)(=O)NCCC(Cl)(Cl)Cl)cc1
inactive: [1] 104 % of control | [2] 101 % of control | [3] 98 % of control

CCCCn1c(C)nc2c(NN=C(N)N)c3ccccc3c(N=NC(=N)N)c21
inactive: endpoint: mean survival time, dose: 7.5 mg/kg/injection, schedule: Q01DX Z (oral), vehicle: carboxymethylcellulose (CMC) 102 % of control | endpoint: mean survival time, dose: 15.0 mg/kg/injection, schedule: Q01DX Z (ip), vehicle: carboxymethylcellulose (CMC) 95 % of control | endpoint: mean survival time, dose: 15.0 mg/kg/injection, schedule: Q01DX Z (oral), vehicle: carboxymethylcellulose (CMC) 104 % of control | endpoint: mean survival time, dose: 30.0 mg/kg/injection, schedule: Q01DX Z (oral), vehicle: carboxymethylcellulose (CMC) 98 % of control | endpoint: mean survival time, dose: 60.0 mg/kg/injection, schedule: Q01DX Z (oral), vehicle: carboxymethylcellulose (CMC) 98 % of control

Cc1cccc(C)c1C1CC1S(=O)(=O)c1ccccc1 (stereo not drawn)
inactive: [14] 101 % of control | [15] 100 % of control | [16] 98 % of control | [17] 94 % of control | [18] 111 % of control | [19] 104 % of control

COc1ccc(CN2CCCN(Cc3ccc(OC)cc3OC)C2c2cccc([N+](=O)[O-])c2O)c(OC)c1
inactive: [20] 104 % of control | [4] 98 % of control | [5] 110 % of control | [6] 98 % of control

Cc1ccc(C(=O)O)cn1
inactive: [21] 97 % of control | [15] 97 % of control | [22] 98 % of control | [17] 113 % of control | [23] 97 % of control | [19] 105 % of control

COc1ccc2c(c1)CN(S(=O)(=O)c1ccc(C)cc1)C=CC2=O
inactive: [11] 96 % of control | [1] 90 % of control | [12] 104 % of control | [2] 96 % of control | [24] 96 % of control | [3] 98 % of control

OC1COC(CCl)OC1C1OC(CCl)OCC1O (stereo not drawn)
inactive: [7] 96 % of control | [8] 96 % of control | [9] 96 % of control

O=C(COc1cccc([N+](=O)[O-])c1)Nc1ccc(S(=O)(=O)F)cc1
inactive: [11] 102 % of control | [12] 100 % of control | [24] 100 % of control

NC1CCCCC1
inactive: [15] 109 % of control | [17] 102 % of control | [19] 100 % of control

CC1(C)OCC(C(NC(=O)c2ccccc2)C(OC(=O)c2ccccc2)C2COC(C)(C)O2)O1 (stereo not drawn)
inactive: [7] 90 % of control | [8] 90 % of control | [9] 90 % of control

COC(=O)CCSC(c1ccccc1)(c1ccccc1)c1ccccc1
inactive: [11] 104 % of control | [1] 96 % of control | [12] 94 % of control | [2] 93 % of control | [24] 100 % of control | [3] 93 % of control

CC(=O)Oc1cc(Cl)c(Cl)cc1Cl
inactive: [21] 100 % of control | endpoint: mean survival time, dose: 100.0 mg/kg/injection, schedule: Q04DX002 (ip), vehicle: gum acacia 102 % of control | [22] 100 % of control | endpoint: mean survival time, dose: 200.0 mg/kg/injection, schedule: Q04DX002 (ip), vehicle: gum acacia 110 % of control | [23] 102 % of control | endpoint: mean survival time, dose: 400.0 mg/kg/injection, schedule: Q04DX002 (ip), vehicle: gum acacia 94 % of control

CC1C(C)C23CCC12C(=O)C(O)C12CCC1(C(O)C3=O)C(C)C2C (stereo not drawn)
inactive: [13] 100 % of control | [14] 109 % of control | [16] 111 % of control

Nc1ccc(N=Nc2c(Br)cc(S(N)(=O)=O)cc2Br)c(N)n1
inactive: [14] 102 % of control | [16] 100 % of control | [18] 94 % of control

O=S(O)c1ccc2cc(O)c(S(=O)O)cc2c1
inactive: [14] 95 % of control | endpoint: mean survival time, dose: 100.0 mg/kg/injection, schedule: Q01DX009 (ip), vehicle: saline with Tween-80 95 % of control | [16] 97 % of control | endpoint: mean survival time, dose: 200.0 mg/kg/injection, schedule: Q01DX009 (ip), vehicle: saline with Tween-80 95 % of control | [18] 97 % of control | endpoint: mean survival time, dose: 400.0 mg/kg/injection, schedule: Q01DX009 (ip), vehicle: saline with Tween-80 92 % of control

CC(C)(C)COC(=O)C(C)(C)CC(C)(C)C
inactive: [14] 93 % of control | endpoint: mean survival time, dose: 187.0 mg/kg/injection, schedule: Q01DX001 (ip), vehicle: carboxymethylcellulose (CMC) 92 % of control | [16] 102 % of control | endpoint: mean survival time, dose: 267.0 mg/kg/injection, schedule: Q01DX001 (ip), vehicle: carboxymethylcellulose (CMC) 97 % of control | [6] 96 % of control | endpoint: mean survival time, dose: 600.0 mg/kg/injection, schedule: Q01DX001 (ip), vehicle: carboxymethylcellulose (CMC) 96 % of control

Nc1ccc(Cc2ccc(Br)cc2)cc1
inactive: endpoint: mean survival time, dose: 75.0 mg/kg/injection, schedule: Q01DX001 (ip), vehicle: acetone 91 % of control | endpoint: mean survival time, dose: 150.0 mg/kg/injection, schedule: Q01DX001 (ip), vehicle: acetone 94 % of control | endpoint: mean survival time, dose: 300.0 mg/kg/injection, schedule: Q01DX001 (ip), vehicle: acetone 94 % of control

O=C1c2ccccc2C(=O)N1Cc1nc(=S)[nH][nH]1
inactive: endpoint: mean survival time, dose: 100.0 mg/kg/injection, schedule: Q01DX001 (ip), vehicle: saline with Tween-80 100 % of control | endpoint: mean survival time, dose: 200.0 mg/kg/injection, schedule: Q01DX001 (ip), vehicle: saline with Tween-80 97 % of control | endpoint: mean survival time, dose: 400.0 mg/kg/injection, schedule: Q01DX001 (ip), vehicle: saline with Tween-80 97 % of control

CC(=O)Nc1ccc(/C=N/Nc2ccccc2)cc1
inactive: [11] 101 % of control | [12] 103 % of control | [24] 101 % of control

CC(=O)OC(C)CC1CCCCC12OCCO2 (stereo not drawn)
inactive: [13] 103 % of control | [14] 108 % of control | [16] 100 % of control | [18] 108 % of control

CC(=O)Nc1ccc2c(c1)Cc1cc(Br)ccc1-2
inactive: [1] 100 % of control | [2] 100 % of control | [3] 103 % of control

O=C(Cc1ccccc1)OC1CC2CC1C1CCCC21 (stereo not drawn)
inactive: [20] 96 % of control | [4] 98 % of control | [5] 104 % of control | [6] 96 % of control
